Test results from paper PMC10095824, “Design and Synthesis of 3-(β-D-Glucopyranosyl)-4-amino/4-guanidino Pyrazole Derivatives and Analysis of Their Glycogen Phosphorylase Inhibitory Potential” (Molecules, 2023).
Read-outs that look alike come from different tables or passages of the source. Each block holds one compound with its values, some of them ahead of it.

Key:
[1] = target: T1, rabbit muscle glycogen phosphorylase b (rmGPb) (Oryctolagus cuniculus, UniProt P00489); parameters: method as in PMID 26713107; settings: cited from earlier work
T1 sequence (P00489 1-843): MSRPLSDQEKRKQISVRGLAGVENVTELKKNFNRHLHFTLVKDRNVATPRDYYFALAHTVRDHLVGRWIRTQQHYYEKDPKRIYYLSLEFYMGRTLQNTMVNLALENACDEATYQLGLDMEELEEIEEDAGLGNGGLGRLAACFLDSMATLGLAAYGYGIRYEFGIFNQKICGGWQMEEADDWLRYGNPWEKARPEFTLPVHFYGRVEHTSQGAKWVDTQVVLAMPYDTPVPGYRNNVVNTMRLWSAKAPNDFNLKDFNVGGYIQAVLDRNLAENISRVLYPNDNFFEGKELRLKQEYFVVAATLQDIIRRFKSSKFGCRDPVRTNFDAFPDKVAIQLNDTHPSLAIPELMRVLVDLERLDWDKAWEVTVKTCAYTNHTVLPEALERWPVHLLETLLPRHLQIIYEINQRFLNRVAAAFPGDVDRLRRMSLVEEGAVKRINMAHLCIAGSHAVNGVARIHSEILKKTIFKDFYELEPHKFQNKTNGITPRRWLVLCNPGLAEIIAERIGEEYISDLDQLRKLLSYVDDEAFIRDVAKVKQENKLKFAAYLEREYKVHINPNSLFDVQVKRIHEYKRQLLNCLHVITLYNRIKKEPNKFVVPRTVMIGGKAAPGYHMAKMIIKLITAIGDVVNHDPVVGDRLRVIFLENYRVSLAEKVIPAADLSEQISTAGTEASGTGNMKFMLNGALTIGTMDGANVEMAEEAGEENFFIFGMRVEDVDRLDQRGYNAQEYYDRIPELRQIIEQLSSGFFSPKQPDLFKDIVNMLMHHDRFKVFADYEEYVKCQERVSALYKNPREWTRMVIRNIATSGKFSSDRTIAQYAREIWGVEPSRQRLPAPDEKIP

[2] = target: T1, rabbit muscle glycogen phosphorylase b (rmGPb); test: Glycogen phosphorylase binding assay (enzyme kinetics in the direction of glycogen synthesis); type: biochemical
Protocol: The determined IC50 values are shown in Table 1, together with the previously determined Ki value for benchmark compound 1. […] Towards understanding the observed potencies, extensive computations on the bound and unbound states of the ligands were performed.
Enzyme activity was assayed into the direction of glycogen synthesis as previously presented. Kinetic data were collected using the muscle phosphorylase b (dephosphorylated, GPb) isoform. Kinetic data for the inhibition of GPb by the compounds were obtained in the presence of 10 μg/mL enzyme, varying concentrations of α-D-glucose-1-phosphate (4–40 mM), constant concentration (1%) of glycogen and AMP (1 mM). Enzymatic activities were presented in the form of a double-reciprocal plot (Lineweaver-Burk). The plots were analysed by a non-linear data analysis program. The inhibitor constants (Ki) were determined by secondary plots, replotting the slopes from the Lineweaver-Burk plot against the inhibitor concentrations. The means of standard errors for all calculated kinetic parameters averaged to less than 10% [48, 49].

Compound: OC[C@H]1O[C@@H](c2cc(-c3ccccc3)n[nH]2)[C@H](O)[C@@H](O)[C@@H]1O [Compound 2]
IC50 [1]: 850 µM

IC50 ([2]; rmGPb): 565 µM
Compound: Nc1c([C@@H]2O[C@H](CO)[C@@H](O)[C@H](O)[C@H]2O)n[nH]c1-c1ccccc1 [Compound 3, 4-Amino-3-(β-D -glucopyranosyl)-5-phenyl-1H-pyrazole]

inhibition of rmGPb ([2]; at 625 µM concentration, 625 µM): no inhibition at 625 µM
Compound: N=C(N)Nc1c([C@@H]2O[C@H](CO)[C@@H](O)[C@H](O)[C@H]2O)n[nH]c1-c1ccccc1 [Compound 4, 3-(β-D -Glucopyranosyl)-4-guanidino-5-phenyl-1H-pyrazole]
